In patent US9388122B2, “Radioactive tyrosine derivative, method for producing same, labeling agent for positron imaging and medical agent for assessing grade of malignancy of tumor respectively composed of radioactive tyrosine derivative, and method for detecting tumor” (priority 2004, dated 2016):
“Also recorded” adds a separate entry of the source.

Legend:
HeLa = experiment: Planar measurement in cancer-bearing mice; conditions: 2.5 MBq tail vein, 60 minutes measurement; for accumulation in the tumor site (planar imaging): PPIS-4800; for accumulation in the normal tissues (planar imaging): compared with tumor site
Description: Measurement was performed (1 minute×60 frames) for 60 minutes immediately after the compound administration by use of a planar imaging system (PPIS-4800 manufactured by Hamamatsu Photonics K. K.) and indicated by images each comprising 10 frames integrated.

[1] = tested on: Human cervical cancer HeLa cells (cell strain: 15S3D); experiment: Measurement of organ distribution in cancer-bearing mice; conditions: 1 hour after administration; for accumulation in the tumor, SUV (organ)/SUV (blood) / accumulation in the normal tissues, SUV (organ)/SUV (blood) / SUV (organ: tumor)/SUV (blood), D-form compared with L-form: HeLa-transplanted nude mice, tail vein; for accumulation in the tumor, SUV (organ)/SUV (blood): 10 MBq (11C) or 1 MBq (18F), gamma counter; for specificity of accumulation to tumor: from SUV (organ)/SUV (blood) of the organs; for ratio of accumulation to the pancreas to accumulation to the tumor indicated by SUV (organ)/SUV (blood): D-form compared with L-form
Description: Human cervical cancer HeLa cells (cell strain: 15S3D) were subcutaneously transplanted at 5×10^6 cells/mouse to the thighs of 7-week-old nude mice (BALB/cA Jcl-nu, Clea Japan, Inc). […] After 1 hour of the administration, the mice were decapitated to collect each organ (blood, heart, lung, liver, kidney, spleen, muscle, bone, small intestine, gastrointestinal tract, pancreas, brain, and tumor). The radioactivity of each organ was measured with an automatic gamma counter, and the weight of each organ was measured. SUV (standardized uptake value) that served as an index of the accumulating amounts of the administered compounds was determined. Furthermore, to correct the accumulating amounts, SUV (organ)/SUV (blood) was determined by dividing the SUV of each organ by the SUV of blood.

[2] = tested on: HeLa-K (cell strain: 15S3D) and HeLa-B (JCRB9004); experiment: Relationship between tumor proliferation rate and degree of accumulation of labeled compound for positron imaging; type: in vivo, nude mice (BALB/cA Jcl-nu)
Excerpt: HeLa-K (cell strain: 15S3D) and HeLa-B (Health Science Research Resources Bank: JCRB9004) were subcutaneously transplanted at 5×10^6 cells/mouse and 2×10^7 cells/mouse, respectively, to the thighs of female BALB/cA Jcl-nu nude mice (HeLa-K: 7-week-old mice, HeLa-B: 5-week-old mice). The HeLa-K- and HeLa-B-transplanted mice, when becoming 9 week old after 2 weeks and 4 weeks of the transplantation, respectively, were used in the experiment. To examine the relationship between the accumulation of each labeled compound in the cancer-bearing mice and the proliferation rate of the tumor tissue, tumor size was daily measured. Doubling time (DT) was calculated according to the calculation formula: DT=t×log2 (V1/V0) proposed by Schwartz, wherein t denotes the number of days required for the tumor volume to reach V1 (mm^3) from V0 (mm^3), and the volume (mm^3) was calculated according to ½×length (mm)×width^2 (mm^2) from the major axis of the tumor. FIG. 7 is a graph showing the relationship between the number of days elapsed after HeLa transplantation and tumor volumes. […] The doubling times of HeLa-K and HeLa-B calculated from FIG. 7 were 4.4 days and 11.0 days, respectively.
The HeLa-K- and HeLa-B-transplanted nude mice were administered through the tail veins with [^18F]FDG, [^11C]choline, [^18F]FLT, L- and D-[^11C]Met, and L- and D-[^11C]MT at 1 MBq ([^18F]FDG and [^18F]FLT) or 10 MBq ([^11C]choline, L- and D-[^11C]Met, and L- and D-[^11C]MT). […] The radioactivities of the blood and tumor were measured with an automatic gamma counter, their weights were measured, and SUV was determined.
HeLa-K- and HeLa-B-transplanted nude mice were administered through the tail veins with L- and D-[^11C]ET, L- and D-[^18F]FMT, L-and D-[^18F]FET, and L- and D-[^18F]FPT at 10 MBq (L- and D-[^11C]ET) or 1 MBq (the others). […] The radioactivities of the blood and tumor were measured with an automatic gamma counter, their weights were measured, and SUV was determined.

cancer cells = conditions: cited from earlier work
tumor tissues = conditions: in vivo; cited from earlier work
[3] = HeLa-K versus HeLa-B tumors, SUV (organ)/SUV (blood), 1 hour after administration

Row | Molecule | accumulation in the tumor site (planar imaging) (HeLa) | accumulation in the tumor, SUV (organ)/SUV (blood) [1] | accumulation in the normal tissues, SUV (organ)/SUV (blood) [1] | specificity of accumulation to tumor [1] | ratio of accumulation to the pancreas to accumulation to the tumor indicated by SUV (organ)/SUV (blood) [1] | also measured
1 | [11CH3]SCC[C@@H](N)C(=O)O [D-[^11C]Met, reference compound] | observed in the tumor site | observed in the tumor | also high in the normal tissues | low specificity to tumor | – | accumulation in the normal tissues (planar imaging) (HeLa): significantly stronger in the normal tissues
2 | [11CH3]Oc1ccc(C[C@@H](N)C(=O)O)cc1 [D-[^11C]MT, O—[^11C]methyl-D-tyrosine] | observed in the tumor site | observed in the tumor | low in the normal tissues except for the pancreas | specific to the tumor | lower in the D-form than in the L-form | tumor-specific accumulation, D-form compared with L-form (planar imaging) (HeLa): accumulate in a manner specific to the tumor as compared with the L-form; accumulation in tumor, SUV (organ)/SUV (blood), HeLa-K versus HeLa-B ([2]; HeLa-K doubling time 4.4 days, HeLa-B 11.0 days, tail vein, 1 hour after administration): accumulated more in HeLa-K exhibiting faster proliferation; difference in the degree of accumulation depending on the difference in proliferation rate [2, 3]: remarkably large; SUV (organ: tumor)/SUV (blood), D-form compared with L-form [1]: higher value of SUV (organ: tumor)/SUV (blood) than the L-form
3 | C[11CH2]Oc1ccc(C[C@@H](N)C(=O)O)cc1 [D-[^11C]ET, O—[^11C]ethyl-D-tyrosine] | – | observed in the tumor | low in the normal tissues except for the pancreas | specific to the tumor | lower in the D-form than in the L-form | –
4 | [11CH3]SCC[C@H](N)C(=O)O [L-[^11C]Met, L-[^11C]methionine, reference compound] | observed in the tumor site | observed in the tumor | also high in the normal tissues | low specificity to tumor | – | accumulation in the normal tissues (planar imaging) (HeLa): significantly stronger in the normal tissues; difference in the degree of accumulation depending on the difference in proliferation rate ([2]; mouse, in vivo): not detected
5 | N[C@@H](Cc1ccc(OCC[18F])cc1)C(=O)O [L-[^18F]FET, O—[^18F]Fluoroethyl-L-tyrosine, reference compound] | – | observed in the tumor | low in the normal tissues except for the pancreas | specific to the tumor | – | –
6 | N[C@H](Cc1ccc(OCC[18F])cc1)C(=O)O [D-[^18F]FET, O—[^18F]fluoroethyl-D-tyrosine] | – | observed in the tumor | low in the normal tissues except for the pancreas | specific to the tumor; also recorded: particularly high specificity to the tumor | lower in the D-form than in the L-form | uptake to cancer cells (cancer cells): low uptake to cancer cells; accumulation in tumor tissues (tumor tissues): does not accumulate in tumor tissues; SUV (organ: tumor)/SUV (blood), D-form compared with L-form [1]: higher value of SUV (organ: tumor)/SUV (blood) than the L-form
7 | N[C@@H](Cc1ccc(OC[18F])cc1)C(=O)O [L-[^18F]FMT, O—[^18F]fluoromethyl-L-tyrosine] | observed in the tumor site | – | – | – | – | –
8 | C[11CH2]Oc1ccc(C[C@H](N)C(=O)O)cc1 [L-[^11C]ET, O—[^11C]Ethyl-L-tyrosine, reference compound] | – | observed in the tumor | low in the normal tissues except for the pancreas | specific to the tumor | – | –
9 | [^18F]-2-fluoro-2-deoxy-D-glucose [[^18F]FDG, reference compound] | – | – | – | – | – | difference in the degree of accumulation depending on the difference in proliferation rate ([2]; mouse, in vivo): not detected
10 | N[C@H](Cc1ccc(OC[18F])cc1)C(=O)O [D-[^18F]FMT, O—[^18F]fluoromethyl-D-tyrosine] | observed in the tumor site | – | – | particularly high specificity to the tumor | – | tumor-specific accumulation, D-form compared with L-form (planar imaging) (HeLa): accumulate in a manner specific to the tumor as compared with the L-form; difference in the degree of accumulation depending on the difference in proliferation rate [2, 3]: remarkably large as compared with L-[^18F]FMT; SUV (organ: tumor)/SUV (blood), D-form compared with L-form [1]: higher value of SUV (organ: tumor)/SUV (blood) than the L-form
11 | N[C@H](Cc1ccc(OCCC[18F])cc1)C(=O)O [D-[^18F]FPT, O—[^18F]fluoropropyl-D-tyrosine] | – | observed in the tumor | low in the normal tissues except for the pancreas and bone | specific to the tumor | lower in the D-form than in the L-form | –
12 | [11CH3]Oc1ccc(C[C@H](N)C(=O)O)cc1 [L-[^11C]MT, O—[^11C]methyl-L-tyrosine, reference compound] | observed in the tumor site | observed in the tumor | low in the normal tissues except for the pancreas | specific to the tumor | – | –
13 | N[C@@H](Cc1ccc(OCCC[18F])cc1)C(=O)O [L-[^18F]FPT, O—[^18F]Fluoropropyl-L-tyrosine, reference compound] | – | observed in the tumor | low in the normal tissues except for the pancreas and bone | specific to the tumor | – | –
